{"source": "paper PMC4987652", "about": "(Scientific Reports, 2016)", "key": {"human MOR-GFP": {"biological_target": "T1, human MOR-GFP (Homo sapiens, UniProt P35372)", "T1 construct": "Human MOR cDNAs (NM_000914) with or without a stop codon were amplified from the Flexi ORF clone; expressed in transfected cells", "T1 sequence (P35372 whole entry)": "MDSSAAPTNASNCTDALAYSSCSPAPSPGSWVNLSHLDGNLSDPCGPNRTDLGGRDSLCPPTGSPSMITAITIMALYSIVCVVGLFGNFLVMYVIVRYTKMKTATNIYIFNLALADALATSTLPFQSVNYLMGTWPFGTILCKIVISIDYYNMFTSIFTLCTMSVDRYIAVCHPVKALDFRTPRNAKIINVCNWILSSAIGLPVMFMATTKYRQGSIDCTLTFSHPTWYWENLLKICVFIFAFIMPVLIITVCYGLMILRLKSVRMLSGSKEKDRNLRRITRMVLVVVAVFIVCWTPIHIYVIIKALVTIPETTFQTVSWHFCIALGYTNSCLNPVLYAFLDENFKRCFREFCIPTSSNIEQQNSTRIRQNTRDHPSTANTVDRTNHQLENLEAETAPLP", "format": "cell-based"}, "human MOR [1]": {"biological_target": "T2, human MOR (Homo sapiens, UniProt P35372)", "T2 sequence (P35372 whole entry)": "as above", "format": "cell-based", "set-up": "Human MOR cDNAs (NM_000914) with or without a stop codon were amplified from the Flexi ORF clone; expressed in transfected cells; pcDNA3.1(+); the cAMP line also carries pGloSensor-22F"}, "human MOR [2]": {"biological_target": "T2, human MOR", "experiment": "biochemical", "format": "binding", "settings": "for % Inhibition of [3H]-diprenorphine binding, MOR: 10 μM test compound, mean n = 2"}, "[3]": {"biological_target": "human δ opioid receptor (DOR) (Homo sapiens, UniProt P41143)", "sequence (P41143 whole entry)": "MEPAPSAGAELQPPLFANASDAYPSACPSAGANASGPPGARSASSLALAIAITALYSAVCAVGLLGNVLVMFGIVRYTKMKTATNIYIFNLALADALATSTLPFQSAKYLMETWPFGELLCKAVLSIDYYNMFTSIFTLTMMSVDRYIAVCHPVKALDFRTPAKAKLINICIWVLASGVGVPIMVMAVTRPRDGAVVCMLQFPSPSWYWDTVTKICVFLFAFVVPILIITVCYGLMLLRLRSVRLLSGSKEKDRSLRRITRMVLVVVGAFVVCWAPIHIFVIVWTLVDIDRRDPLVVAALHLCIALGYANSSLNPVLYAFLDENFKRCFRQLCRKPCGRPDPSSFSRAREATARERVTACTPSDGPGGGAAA", "experiment": "Receptor binding assay, primary screening, [3H]-naltrindole, DOR", "settings": "10 μM test compound, mean n = 2"}, "human KOR": {"biological_target": "human KOR (Homo sapiens, UniProt P41145)", "sequence (P41145 whole entry)": "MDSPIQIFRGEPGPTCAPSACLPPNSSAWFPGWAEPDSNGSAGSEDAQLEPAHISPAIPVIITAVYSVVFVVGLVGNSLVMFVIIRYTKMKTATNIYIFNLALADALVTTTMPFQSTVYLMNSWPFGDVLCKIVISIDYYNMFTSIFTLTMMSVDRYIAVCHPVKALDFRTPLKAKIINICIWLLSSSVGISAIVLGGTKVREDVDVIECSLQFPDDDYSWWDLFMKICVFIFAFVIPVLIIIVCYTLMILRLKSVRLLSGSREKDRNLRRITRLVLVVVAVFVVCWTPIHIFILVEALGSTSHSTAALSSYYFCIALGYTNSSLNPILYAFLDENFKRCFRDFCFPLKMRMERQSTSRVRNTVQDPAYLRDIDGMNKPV", "experiment": "Receptor binding assay, primary screening, [3H]-diprenorphine, KOR", "settings": "10 μM test compound, mean n = 2"}, "[4]": {"biological_target": "human nociception receptor (NOP) (Homo sapiens, UniProt P41146)", "sequence (P41146 whole entry)": "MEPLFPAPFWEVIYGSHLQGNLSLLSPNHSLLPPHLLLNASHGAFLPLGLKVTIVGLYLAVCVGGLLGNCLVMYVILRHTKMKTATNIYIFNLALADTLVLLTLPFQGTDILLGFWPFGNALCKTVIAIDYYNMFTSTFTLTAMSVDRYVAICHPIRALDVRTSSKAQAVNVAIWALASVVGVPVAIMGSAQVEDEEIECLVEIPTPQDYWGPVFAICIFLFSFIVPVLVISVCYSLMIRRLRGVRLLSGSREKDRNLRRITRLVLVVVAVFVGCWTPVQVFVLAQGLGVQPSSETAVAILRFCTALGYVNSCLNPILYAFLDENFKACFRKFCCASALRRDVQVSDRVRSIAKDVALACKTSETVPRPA", "experiment": "Receptor binding assay, primary screening, [3H]-nociceptin, NOP", "settings": "10 μM test compound, mean n = 2"}, "rat whole brain [5]": {"system": "rat whole brain", "experiment": "Receptor binding assay, primary screening, [3H]-naloxone, rat whole brain", "settings": "10 μM test compound, mean n = 2"}, "[6]": {"experiment": "Rat pharmacokinetic study of GJG, plasma LC/MS/MS", "format": "in vivo", "settings": "GJG 1 g/kg oral, 1 h after administration", "experimental": "A pharmacokinetic study of GJG was performed to identify the bioavailable molecules in PAT. GJG (1 g/kg) was orally administered to rats and blood samples were collected 1 h after administration. Then, representative components of PAT in the collected blood samples were measured by LC/MS/MS. […] Therefore, we further investigated whether ignavine and benzoylmesaconine affect the opioid system.\nMale Sprague-Dawley rats (7 weeks, Japan Clea Inc., Tokyo, Japan) were fasted for more than 16 hours with access to water. At 1 h after oral administration of GJG (1.0 g/10 mL/kg, n = 5), blood samples were collected with a heparin-coated syringe and centrifuged at 1,500 × g for 15 minutes at 4 °C. The plasma samples were stored at −80 °C until use.\nPlasma samples were pretreated by solid-phase extraction (Oasis® MCX μ Elution Plate, 30 μm; Waters Corporation, Milford, MA, USA) and injected into the LC/MS/MS system for analysis. Components of GJG in plasma were measured by a QTRAP®5500 system (AB SCIEX, Framingham, MA, USA) equipped with an Agilent 1260 HPLC system (binary pump, online degasser, auto plate-sampler and column oven; Agilent Technologies, Santa Clara, CA, USA). The lower limits for quantification were 0.01 ng/mL for ignavine; 0.002 ng/mL for benzoylaconine; 0.001 ng/mL for benzoylmesaconine, benzoylhypaconine and 14-anisoylaconine."}, "normal mice [7]": {"system": "normal mice", "experiment": "Tail-flick test", "format": "in vivo", "experimental": "(§1) Analgesic activity of ignavine was investigated by the tail-flick (Fig. 6A) and tail-pressure tests in normal mice (Fig. 6B). […] Maximum activity was shown at a dose of 0.1 mg/kg and analgesic activity was attenuated at higher doses. These dose-dependent relationships were similar to the results of in vitro assays.\n(§2) Antinociceptive responses were evaluated by the tail-flick test (Tail flick unit; Ugo Basile, Comerio, Italy) and the tail-pressure test (Pressure analgesimeter; Ugo Basile). The latency (sec) or weight (g) at which mice struggled or withdrew was considered the nociceptive threshold."}, "normal mice [8]": {"system": "normal mice", "experiment": "Tail-pressure test", "format": "in vivo", "experimental": "as §1, §2"}, "[9]": {"set-up": "method as in PMID 7116516", "settings": "acetic acid-induced writhing and carrageenan paw edema test; cited from earlier work"}, "human MOR [10]": {"biological_target": "T2, human MOR", "experiment": "biochemical", "format": "binding", "set-up": "Human MOR cDNAs (NM_000914) with or without a stop codon were amplified from the Flexi ORF clone; expressed in transfected cells; pcDNA3.1(+); the cAMP line also carries pGloSensor-22F"}, "rat whole brain [11]": {"biological_target": "rat whole brain", "settings": "read-out: Kd of radioligand, rat brain; assay condition of the binding assay; ref MDS Pharma Services; cited from earlier work"}, "[12]": {"biological_target": "human μ opioid receptor (MOR) (human) (UniProt P35372)", "sequence (P35372 whole entry)": "as the sequence (P35372 whole entry) above"}, "[13]": {"settings": "intra-peritoneal administration, area under the curve"}, "[14]": {"settings": "intra-peritoneal, attenuated at higher doses"}}, "note": "Entries after “also recorded” stand apart in the source; their conditions may differ."}
{"molecule": "C[C@@H](NC(=O)[C@@H](N)Cc1ccc(O)cc1)C(=O)NCC(=O)N(C)[C@@H](Cc1ccccc1)C(=O)NCCO", "note": "[DAMGO, D-Ala(2)-N-Me-Phe(4)-Gly-ol(5)-enkephalin, reference compound]", "values": [{"measurement": "MOR internalization (vesicle formation)", "setting": "human MOR-GFP", "result": "vesicles were observed in the intracellular space; also recorded: induced vesicle formation"}, {"measurement": "Effect on forskolin-induced increase of intracellular cAMP", "setting": "human MOR [1]", "result": "inhibited the increase of intracellular cAMP"}]}
{"molecule": "COC[C@]12CN(C)C3[C@@H]4[C@H](OC)[C@H]1[C@@]3([C@@H](OC)C[C@H]2O)[C@@H]1C[C@@]2(O)[C@H](OC(=O)c3ccccc3)[C@@H]1[C@]4(O)[C@@H](O)[C@@H]2OC", "note": "[benzoylmesaconine]", "values": [{"measurement": "% Inhibition of [3H]-diprenorphine binding, MOR", "setting": "human MOR [2]", "result": 2, "unit": "%"}, {"measurement": "% Inhibition of radioligand binding, DOR", "setting": "[3]", "result": -8, "unit": "%"}, {"measurement": "% Inhibition of [3H]-diprenorphine binding, KOR", "setting": "human KOR; 10 µM", "result": "Neither ignavine nor benzoylmesaconine inhibited"}, {"measurement": "% Inhibition of [3H]-diprenorphine binding, KOR", "setting": "human KOR; listed as Benzoylmesaconine, 10 µM", "result": 3, "unit": "%"}, {"measurement": "% Inhibition of radioligand binding, NOP", "setting": "[4]", "result": -9, "unit": "%"}, {"measurement": "% Inhibition of [3H]-naloxone binding, rat brain", "setting": "rat whole brain [5]", "result": 17, "unit": "%"}, {"measurement": "Plasma concentration after oral GJG", "setting": "[6]", "result": "higher concentrations"}]}
{"molecule": "C=C1C2CC3C4N5CC6(C)C(O)C(OC(=O)c7ccccc7)CC47C6C5CC3(C1O)C7(O)C2", "note": "(stereo not shown) [ignavine]", "values": [{"measurement": "% Inhibition of [3H]-diprenorphine binding, MOR", "setting": "human MOR [2]", "result": "almost completely inhibited"}, {"measurement": "inhibition at 10 µM", "setting": "human MOR [2]; read-out: % Inhibition of [3H]-diprenorphine binding, MOR", "result": 90, "unit": "%"}, {"measurement": "inhibition at 10 µM", "setting": "[3]; read-out: % Inhibition of radioligand binding, DOR", "result": -5, "unit": "%"}, {"measurement": "% Inhibition of [3H]-diprenorphine binding, KOR", "setting": "human KOR", "result": "Neither ignavine nor benzoylmesaconine inhibited"}, {"measurement": "inhibition at 10 µM", "setting": "human KOR", "result": 0, "unit": "%"}, {"measurement": "inhibition at 10 µM", "setting": "[4]; read-out: % Inhibition of radioligand binding, NOP", "result": -7, "unit": "%"}, {"measurement": "% Inhibition of [3H]-naloxone binding, rat brain", "setting": "rat whole brain [5]; 10 µM", "result": "also inhibited its binding"}, {"measurement": "% Inhibition of [3H]-naloxone binding, rat brain", "setting": "rat whole brain [5]; listed as Ignavine, 10 µM", "result": 92, "unit": "%"}, {"measurement": "MOR internalization, ignavine alone", "setting": "human MOR-GFP", "result": "did not affect receptor internalization"}, {"measurement": "Analgesic activity, tail-flick test", "setting": "normal mice [7]; [13]", "result": "inhibited pain"}, {"measurement": "Dose of maximum analgesic activity, tail-flick test", "setting": "normal mice [7]; [14]", "result": 0.1, "unit": "mg/kg"}, {"measurement": "Analgesic activity, tail-pressure test", "setting": "normal mice [8]; [13]", "result": "inhibited pain"}, {"measurement": "Dose of maximum analgesic activity, tail-pressure test", "setting": "normal mice [8]; [14]", "result": 0.1, "unit": "mg/kg"}, {"measurement": "Plasma concentration after oral GJG", "setting": "[6]", "result": "highest concentration among the measured components; also recorded: higher concentrations"}, {"measurement": "Anti-inflammatory activity and adverse effects", "setting": "[9]", "result": "anti-inflammatory activity"}, {"measurement": "IC50", "setting": "human MOR [10]", "result": 2000, "unit": "nM"}, {"measurement": "Effect on intracellular cAMP levels, ignavine alone", "setting": "human MOR [1]", "result": "no effect"}, {"measurement": "Fold increase of EC50 of DAMGO", "setting": "human MOR [1]", "result": 3.3, "unit": "fold"}, {"measurement": "Modulation of DAMGO activity in cAMP assay, early period", "setting": "human MOR [1]", "result": "enhancing the activity of DAMGO"}, {"measurement": "Modulation of DAMGO activity in cAMP assay, later period", "setting": "human MOR [1]", "result": "inhibiting DAMGO activity"}, {"measurement": "Modulation of endomorphin-1 (EMP-1) activity in cAMP assay", "setting": "human MOR [1]", "result": "positive modulation"}, {"measurement": "Modulation of endomorphin-1 activity in cAMP assay", "setting": "human MOR [1]", "result": "inhibited them"}, {"measurement": "Modulation of morphine (MRP) activity in cAMP assay", "setting": "human MOR [1]", "result": "positive modulation"}, {"measurement": "Modulation of morphine activity in cAMP assay", "setting": "human MOR [1]", "result": "inhibited them"}, {"measurement": "Response in cAMP assay in the presence of naloxone", "setting": "human MOR [1]", "result": "did not show a clear response"}]}
{"molecule": "C=CCN1CC[C@]23c4c5ccc(O)c4O[C@H]2C(=O)CC[C@@]3(O)[C@H]1C5", "note": "[naloxone]", "values": [{"measurement": "Kd", "setting": "rat whole brain [11]", "result": 1.4, "unit": "nM"}]}
{"molecule": "D-Ala(2)-N-Me-Phe(4)-Gly-ol(5)-enkephalin (peptide)", "values": [{"measurement": "EC50 of DAMGO in the intracellular cAMP assay, fold change with 1 μM ignavine against DMSO, 7.5 min after forskolin", "setting": "[12]", "result": 3.8, "unit": "fold"}, {"measurement": "EC50 of DAMGO in the intracellular cAMP assay, fold change with 10 μM ignavine against DMSO, 23.5 min after forskolin", "setting": "[12]", "result": 3.3, "unit": "fold"}]}
